In patent publication US11497751B2, “Modulators of Rho-associated protein kinase” (Redx Pharma PLC, priority 2018, dated 2022):
Where “and” joins values, the source holds several entries; their conditions need not be identical. Equal entries are not always repeated. Structures can show the parent of a compound that is named as a salt.

Target: T1, N-terminal 6His-tagged ROCK2 catalytic domain 11-552 (Homo sapiens, UniProt O75116)
T1 construct: N-terminal 6His-tagged ROCK2 catalytic domain 11-552; 6His (N); purchased Dundee University, UK; host or cells: baculovirus expression system
Experiment: ROCK2 binding activity: ROCK2 inhibition, ADP-Glo Kinase Assay
Assay type: biochemical
Conditions: 1.25 nM ROCK2, 100 μM long S6 peptide, 20 μM ATP; 1 hour pre-incubation; read-out: ADP-Glo kinase activity assay ROCK2 Category
Method: Assay for ROCK2 inhibition was performed using the protein construct N-terminal 6His-tagged ROCK2 catalytic domain 11-552 (Dundee University, UK). Protein was purified from a baculovirus expression system. Long S6 peptide ([…]) was used as substrate. Kinase reactions were carried out in 15 μl volume in a 96-well plate (black, half area) using 1.25 nM constitutively active ROCK2 kinase, 100 μM long S6 peptide, 20 μM ATP and test compound in DMSO (or DMSO only for controls). The final concentration of DMSO was 1%. Assay buffer was 50 mM HEPES pH 7.5 supplemented with 0.2 mM EDTA, 10 mM magnesium acetate, 0.01% Tween-20, 1 mM DTT and 0.01% BSA. Test compounds were pre-incubated with ROCK2 kinase for 1 hour before addition of ATP and long S6 peptide. After incubation for a further 1 hour, the amount of ADP produced was measured using ADP-Glo Kinase Assay (Promega) as per manufacturer's instructions. The luminescence was measured on a PHERAstar FS (BMG Labtech). The concentration of test compound required to inhibit ADP production by 50% (the IC50) was calculated using a four-parameter logistic function with software by Dotmatics.
The category “+” refers to compounds with a ROCK2 IC50 value of >10 μM. The category “++” refers to compounds with a ROCK2 IC50 value of 10 to 3 μM. The category “+++” refers to compounds with a ROCK2 IC50 value of 3 to 0.3 μM. The category “++++” refers to compounds with a ROCK2 IC50 value of <0.3 μM.

T1 sequence (O75116 11-552): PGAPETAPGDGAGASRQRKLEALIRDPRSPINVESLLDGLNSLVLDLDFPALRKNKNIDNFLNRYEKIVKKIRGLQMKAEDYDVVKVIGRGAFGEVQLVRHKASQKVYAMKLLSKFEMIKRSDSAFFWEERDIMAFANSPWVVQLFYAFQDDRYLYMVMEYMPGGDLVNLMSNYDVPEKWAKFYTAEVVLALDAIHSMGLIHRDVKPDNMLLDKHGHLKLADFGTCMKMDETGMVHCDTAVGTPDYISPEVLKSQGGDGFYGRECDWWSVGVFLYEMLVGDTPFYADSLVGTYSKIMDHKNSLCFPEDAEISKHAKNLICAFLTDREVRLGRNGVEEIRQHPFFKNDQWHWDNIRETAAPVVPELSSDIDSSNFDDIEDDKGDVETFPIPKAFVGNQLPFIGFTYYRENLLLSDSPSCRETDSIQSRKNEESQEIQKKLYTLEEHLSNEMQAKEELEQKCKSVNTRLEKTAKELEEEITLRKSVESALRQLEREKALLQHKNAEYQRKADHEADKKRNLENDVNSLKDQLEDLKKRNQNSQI

Row | IC50 | Compound
1 | < 300 nM | O=C(COc1ccc(-c2nnc(Nc3ccc4[nH]ncc4c3)[nH]2)cc1)NC1COC1 [Example 164]
2 | < 300 nM | COc1cc(-c2nnc(Nc3ccc4[nH]ncc4c3)[nH]2)ccc1OCC(=O)NC1CCC1 [Example 165]
3 | < 300 nM | CC(C)NC(=O)c1ccc(-c2nc(Nc3ccc4[nH]ncc4c3Cl)n(C)n2)cc1 [Example 166, 4-[5-[(4-chloro-1H-indazol-5-yl)amino]-1-methyl-1,2,4-triazol-3-yl]-N-isopropyl-benzamide]
4 | < 300 nM | COc1cc(-c2nc(Nc3ccc4[nH]ncc4c3)n(C)n2)ccc1OCC(=O)NC(C)C [Example 167]
5 | < 300 nM | CCNC(=O)c1ccc(-c2nc(Nc3ccc4[nH]ncc4c3)n(C)n2)cc1OC [Example 168]
6 | < 300 nM | COc1cc(-c2nc(Nc3ccc4[nH]ncc4c3)n(C)n2)ccc1C(=O)NC(C)C [Example 169]
7 | < 300 nM | COc1cc(-c2nc(Nc3ccc4[nH]ncc4c3)n(C)n2)ccc1C(=O)NC(C)(C)C [Example 170]
8 | < 300 nM | Cn1nc(-c2ccc(C(=O)NCC(F)(F)F)cc2)nc1Nc1ccc2[nH]ncc2c1Cl [Example 171]
9 | 300 to 3000 nM | COc1cc(-c2nc(Nc3ccc4[nH]ncc4c3Cl)n(C)n2)ccc1C(=O)N1CCOCC1 [Example 172]
10 | 3000 to 10000 nM | COc1cc(-c2nc(Nc3ccc4[nH]ncc4c3Cl)n(C)n2)ccc1C(=O)N1CC(CO)(CO)C1 [Example 173]
11 | < 300 nM | CNC(=O)c1ccc(-c2nc(Nc3ccc4[nH]ncc4c3Cl)n(C)n2)cc1OC [Example 174]
12 | < 300 nM | COc1cc(-c2nc(Nc3ccc4[nH]ncc4c3Cl)n(C)n2)ccc1C(=O)NC(C)(C)C [Example 175]
13 | < 300 nM | Cn1nc(-c2ccc(C(=O)NC3CCC3)cc2)nc1Nc1ccc2[nH]ncc2c1Cl [Example 176]
14 | < 300 nM | Cn1nc(-c2ccc(C(=O)NC3CC3)cc2)nc1Nc1ccc2[nH]ncc2c1Cl [Example 177]
15 | < 300 nM | COc1cc(-c2nc(Nc3ccc4[nH]ncc4c3C)n(C)n2)ccc1C(=O)NCC(F)(F)F [Example 178]
16 | < 300 nM | COc1cc(-c2nc(Nc3ccc4[nH]ncc4c3C)n(C)n2)ccc1C(=O)NC(C)C [Example 179]
17 | < 300 nM | CCNC(=O)c1ccc(-c2nc(Nc3ccc4[nH]ncc4c3C)n(C)n2)cc1OC [Example 180]
18 | < 300 nM | COc1cc(-c2nc(Nc3ccc4[nH]ncc4c3C)n(C)n2)ccc1C(=O)NC(C)(C)C [Example 181]
19 | < 300 nM | COc1cc(-c2nc(Nc3ccc4[nH]ncc4c3C)n(C)n2)ccc1C(=O)NC1CC1 [Example 182]
20 | < 300 nM | COc1cc(-c2nc(Nc3ccc4[nH]ncc4c3F)n(C)n2)ccc1C(=O)NC(C)C [Example 183]

Row | IC50 | Compound
21 | 300 to 3000 nM and < 300 nM | COc1cc(-c2nc(Nc3ccc4[nH]ncc4c3F)n(C)n2)ccc1C(=O)NCC(F)(F)F [Example 184]
22 | < 300 nM | COc1cc(-c2nc(Nc3ccc4[nH]ncc4c3Cl)n(C(C)C)n2)ccc1C(=O)NC(C)C [Example 191]
23 | < 300 nM | COc1cc(-c2nc(Nc3ccc4[nH]ncc4c3Cl)n(C(C)C)n2)ccc1C(=O)NCC(F)(F)F [Example 192]
24 | < 300 nM | COc1cc(-c2nc(Nc3ccc4[nH]ncc4c3Cl)n(C)n2)ccc1C(=O)NC(C)C [Example 193, 4-[5-[(4-chloro-1H-indazol-5-yl)amino]-1-methyl-1,2,4-triazol-3-yl]-N-isopropyl-2-methoxy-benzamide]
25 | < 300 nM | COc1cc(-c2nc(Nc3ccc4[nH]ncc4c3Cl)n(C)n2)ccc1C(=O)NC1CC1 [Example 195]
26 | < 300 nM | COc1cc(-c2nc(Nc3ccc4[nH]ncc4c3Cl)n(C)n2)ccc1C(=O)NC1CCOCC1 [Example 196]
27 | 300 to 3000 nM | COc1cc(-c2nc(Nc3ccc4[nH]ncc4c3Cl)n(C)n2)ccc1C(=O)N1CCCC1 [Example 197]
28 | < 300 nM | COc1cc(-c2nc(Nc3ccc4[nH]ncc4c3Cl)n(C)n2)ccc1C(=O)NC1(CO)CC1 [Example 198]
29 | 300 to 3000 nM | COc1cc(-c2nc(Nc3ccc4[nH]ncc4c3Cl)n(C)n2)ccc1C(=O)NC#N [Example 199]
30 | < 300 nM | COc1cc(-c2nc(Nc3ccc4[nH]ncc4c3Cl)n(C)n2)ccc1C(=O)NC1CCS(=O)(=O)C1 (stereo not shown) [Example 200]
31 | < 300 nM | COc1cc(-c2nc(Nc3ccc4[nH]ncc4c3Cl)n(C)n2)ccc1C(=O)NCC(F)(F)F [Example 201]
32 | < 300 nM | COc1cc(-c2nc(Nc3ccc4[nH]ncc4c3Cl)n(C)n2)ccc1C(=O)NC1CCN(C)C1 (stereo not shown) [Example 202]
33 | < 300 nM | COc1cc(-c2nc(Nc3ccc4[nH]ncc4c3Cl)n(C)n2)ccc1C(N)=O [Example 203]
34 | < 300 nM | COc1cc(-c2nc(Nc3ccc4[nH]ncc4c3Cl)n(C)n2)ccc1OCC(=O)NC(C)(C)C [Example 204, N-tert-butyl-2-[4-[5-[(4-chloro-1H-indazol-5-yl)amino]-1-methyl-1,2,4-triazol-3-yl]-2-methoxy-phenoxy]acetamide]
35 | < 300 nM | COc1cc(-c2nc(Nc3ccc4[nH]ncc4c3Cl)n(C)n2)ccc1OCC(=O)NC(C)(C)CO [Example 205]
36 | < 300 nM | COc1cc(-c2nc(Nc3ccc4[nH]ncc4c3Cl)n(C)n2)ccc1OCC(=O)NCC(C)O (stereo not shown) [Example 206]
37 | < 300 nM | COc1cc(-c2nc(Nc3ccc4[nH]ncc4c3Cl)n(C)n2)ccc1OCC(=O)NCC(C)(C)O [Example 207]
38 | < 300 nM | COc1cc(-c2nc(Nc3ccc4[nH]ncc4c3Cl)n(C)n2)ccc1OCC(=O)NC(C)CO (stereo not shown) [Example 208]
39 | < 300 nM | COc1cc(-c2nc(Nc3ccc4[nH]ncc4c3Cl)n(C)n2)ccc1OCC(=O)NCC1(O)CC1 [Example 209]
40 | < 300 nM | COc1cc(-c2nc(Nc3ccc4[nH]ncc4c3Cl)n(C)n2)ccc1OCC(=O)NC(C)C(F)(F)F (stereo not shown) [Example 210]

Row | IC50 | Compound
41 | < 300 nM | COc1cc(-c2nc(Nc3ccc4[nH]ncc4c3Cl)n(C)n2)ccc1OCC(=O)NC1(CO)CC1 [Example 211]
42 | < 300 nM | COc1cc(-c2nc(Nc3ccc4[nH]ncc4c3Cl)n(C)n2)ccc1OCC(=O)NC1CCC(O)CC1 (stereo not shown) [Example 212]
43 | < 300 nM | COc1cc(-c2nc(Nc3ccc4[nH]ncc4c3Cl)n(C)n2)ccc1OCC(=O)N[C@@H]1CCCC[C@H]1O [Example 213]
44 | < 300 nM | COc1cc(-c2nc(Nc3ccc4[nH]ncc4c3Cl)n(C)n2)ccc1OCC(=O)NC1CC(O)C1 (stereo not shown) [Example 214]
45 | < 300 nM | COc1cc(-c2nc(Nc3ccc4[nH]ncc4c3Cl)n(C)n2)ccc1OCC(=O)NC(C)c1ccccn1 (stereo not shown) [Example 215]
46 | < 300 nM | COc1cc(-c2nc(Nc3ccc4[nH]ncc4c3Cl)n(C)n2)ccc1OCC(=O)NC(C)c1cccnc1 (stereo not shown) [Example 216]
47 | < 300 nM | COc1cc(-c2nc(Nc3ccc4[nH]ncc4c3Cl)n(C)n2)ccc1OCC(=O)NC1CCCC1 [Example 217]
48 | < 300 nM | COc1cc(-c2nc(Nc3ccc4[nH]ncc4c3Cl)n(C)n2)ccc1OCC(=O)N[C@@H](C)C(F)(F)F [Example 218]
49 | < 300 nM | COc1cc(-c2nc(Nc3ccc4[nH]ncc4c3Cl)n(C)n2)ccc1OCC(=O)N[C@H](C)C(F)(F)F [Example 219]
50 | 300 to 3000 nM | CS(=O)(=O)NCCOc1ccc(-c2nnc(Nc3ccc4[nH]ncc4c3)[nH]2)cc1 [Example 220, N-[2-[4-[5-(1H-Indazol-5-ylamino)-4H-1,2,4-triazol-3-yl]phenoxy]ethyl]methanesulfonamide]
51 | 300 to 3000 nM | CC(=O)NCCOc1ccc(-c2nnc(Nc3ccc4[nH]ncc4c3)[nH]2)cc1 [Example 221]
52 | < 300 nM | c1ccc(NCCOc2ccc(-c3nnc(Nc4ccc5[nH]ncc5c4)[nH]3)cc2)nc1 [Example 222]
53 | 3000 to 10000 nM | CC(C)CC(=O)NCCOc1ccc(-c2nnc(Nc3ccc4[nH]ncc4c3)[nH]2)cc1 [Example 223]
54 | < 300 nM | CC(C)NC(=O)NCCOc1ccc(-c2nnc(Nc3ccc4[nH]ncc4c3)[nH]2)cc1 [Example 224, 1-[2-[4-[5-(1H-indazol-5-ylamino)-4H-1,2,4-triazol-3-yl]phenoxy]ethyl]-3-isopropyl-urea dihydrochloride]
55 | 300 to 3000 nM | O=C(NCCOc1ccc(-c2nnc(Nc3ccc4[nH]ncc4c3)[nH]2)cc1)N1CCCC1 [Example 225]
56 | < 300 nM | CC(C)NS(=O)(=O)COc1ccc(-c2n[nH]c(Nc3ccc4[nH]ncc4c3)n2)cc1 [Example 226, 1-[4-[5-(1H-indazol-5-ylamino)-4H-1,2,4-triazol-3-yl]phenoxy]-N-isopropyl-methanesulfonamide]
57 | 300 to 3000 nM | COc1cc(-c2nc(Nc3ccc4[nH]ncc4c3)n[nH]2)ccc1OCC(=O)NC1CN(C(C)=O)C1 [Example 227, N-(1-acetylazetidin-3-yl)-2-[4-[5-(1H-indazol-5-ylamino)-4H-1,2,4-triazol-3-yl]-2-methoxy-phenoxy]acetamide]
58 | 300 to 3000 nM | NC1(COc2ccc(-c3nnc(Nc4ccc5[nH]ncc5c4)[nH]3)cc2)COC1 [Example 228, N-[5-[4-[(3-aminooxetan-3-yl)methoxy]phenyl]-4H-1,2,4-triazol-3-yl]-1H-indazol-5-amine]
